Measured values reported in patent publication US20240108623A1, “METHODS OF TREATING CANCER WITH POZIOTINIB” (BOARD OF REGENTS, THE UNIVERSITY OF TEXAS SYSTEM, priority 2021, published 2024).

Legend:
Assay in all cases: Ba/F3 cell drug screening, Cell Titer Glo
Assay type in all cases: cell-based
EGFR L858R/V834L = target: T1, EGFR L858R/V834L (Homo sapiens, UniProt P00533, L858R/V834L); conditions: Ba/F3 cells expressing EGFR L858R/V834L; 72 hours
T1 construct: expressed in transfected cells; host or cells: Ba/F3 (retroviral, pBabe-Puro based vector)
Procedure: (§1) Ba/F3 cell generation, drug screening, and IC50 approximations. Ba/F3 cells were obtained as a gift from Dr. Gordon Mills (MD Anderson Cancer Center), and maintained in RPMI (Sigma) containing 10% FBS, 1% penicillin/streptomycin, and 10 ng/ml recombinant mIL-3 (R&D Biosystems). To establish stable Ba/F3 cell lines, Ba/F3 cells were transduced with retroviruses containing mutant EGFR plasmids for 12-24 hours. Retroviruses were generated using Lipofectamine 2000 (Invitrogen) transfections of Phoenix 293T-ampho cells (Orbigen) with pBabe-Puro based vectors listed below in Table 6. Vectors were generated by GeneScript or Bioinnovatise using parental vectors from Addgene listed below in Table 6.
(§2) After 48-72 hours of transduction, 2 μg/ml puromycin (Invitrogen) was added to Ba/F3 cell lines in complete RPMI. To select for EGFR positive cell lines, cells were stained with PE-EGFR (Biolegend) and sorted by FACS. After sorting, EGFR positive cells were maintained in RPMI containing 10% FBS, 1% penicillin/streptomycin, and 1 ng/ml EGF to support cell viability. Drug screening was performed as previously described^41,42. Shortly, cells were plated in 384-well plates (Greiner Bio-One) at 2000-3000 cells per well in technical triplicate. Seven different concentrations of TKIs or DMSO vehicle were added to reach a final volume of 40 μL per well. After 72 hours, 11p L of Cell Titer Glo (Promega) was added to each well. Plates were incubated for a minimum of 10 minutes, and bioluminescence was determined using a FLUOstar OPTIMA plate reader (BMG LABTECH). Raw bioluminescence values were normalized to DMSO control treated cells, and values were plotted in GraphPad Prism. Non-linear regressions were used to fit the normalized data with a variable slope, and IC50 values were determined by GraphPad prism by interpolation of concentrations at 50% inhibition. Drug screens were performed in technical triplicate on each plate and either duplicate or triplicate biological replicates. Mutant to WT ratios (Mut/WT) for each drug were calculated by dividing the IC50 values of mutant cell lines by the average IC50 value of Ba/F3 cells expressing WT EGFR supplemented with 10 ng/ml EGF for each drug. Statistical differences between groups were determined by ANOVA as described in the figure legends.

EGFR L861R = target: T2, EGFR L861R (Homo sapiens, UniProt P00533, L861R); conditions: Ba/F3 cells expressing EGFR L861R; 72 hours
T2 construct: expressed in transfected cells; host or cells: Ba/F3 (retroviral, pBabe-Puro based vector; created by GeneScript from EGFR WT)
Procedure: as §1, §2

EGFR L718V = target: T3, EGFR L718V (Homo sapiens, UniProt P00533, L718V); conditions: Ba/F3 cells expressing EGFR L718V; 72 hours
T3 construct: expressed in transfected cells; host or cells: Ba/F3 (retroviral transduction, pBabe-Puro based vectors)
Procedure: as §1, §2

EGFR Ex19del/T790M/L792H = target: T4, EGFR Ex19del/T790M/L792H (Homo sapiens, UniProt P00533, DEL746-750/L792H/T790M); conditions: Ba/F3 cells expressing EGFR Ex19del/T790M/L792H; 72 hours
T4 construct: expressed in transfected cells; host or cells: Ba/F3 (retroviral transduction, pBabe-Puro based vectors)
Procedure: as §1, §2

EGFR S768dupSVD = target: T5, EGFR S768dupSVD (Homo sapiens, UniProt P00533, DUP768-770); conditions: Ba/F3 cells expressing EGFR S768dupSVD; 72 hours
T5 construct: expressed in transfected cells; host or cells: Ba/F3 (retroviral, pBabe-Puro based vector)
Procedure: as §1, §2

EGFR S720P = target: T6, EGFR S720P (Homo sapiens, UniProt P00533, S720P); conditions: Ba/F3 cells expressing EGFR S720P; 72 hours
T6 construct: expressed in transfected cells; host or cells: Ba/F3 (retroviral, pBabe-Puro based vector; created by GeneScript from EGFR WT)
Procedure: as §1, §2

EGFR E709K = target: T7, EGFR E709K (Homo sapiens, UniProt P00533, E709K); conditions: Ba/F3 cells expressing EGFR E709K; 72 hours
T7 construct: expressed in transfected cells; host or cells: Ba/F3 (retroviral transduction, pBabe-Puro based vectors)
Procedure: as §1, §2

EGFR E709K G719S = target: T8, EGFR E709K G719S (Homo sapiens, UniProt P00533, E709K/G719S); conditions: Ba/F3 cells expressing EGFR E709K G719S; 72 hours
T8 construct: expressed in transfected cells; host or cells: Ba/F3 (retroviral transduction, pBabe-Puro based vectors)
Procedure: as §1, §2

EGFR L858R/L718V = target: T9, EGFR L858R/L718V (Homo sapiens, UniProt P00533, L718V/L858R); conditions: Ba/F3 cells expressing EGFR L858R/L718V; 72 hours
T9 construct: host or cells: Ba/F3 (retroviral transduction, pBabe-Puro based vectors)
Procedure: as §1, §2

EGFR L858R T790M L792H = target: T10, EGFR L858R T790M L792H (Homo sapiens, UniProt P00533, L792H/L858R/T790M); conditions: Ba/F3 cells expressing EGFR L858R T790M L792H; 72 hours
T10 construct: expressed in transfected cells; host or cells: Ba/F3 (retroviral transduction, pBabe-Puro based vectors)
Procedure: as §1, §2

EGFR S811F = target: T11, EGFR S811F (Homo sapiens, UniProt P00533, S811F); conditions: Ba/F3 cells expressing EGFR S811F; 72 hours
T11 construct: expressed in transfected cells; host or cells: Ba/F3 (retroviral, pBabe-Puro based vector; created by GeneScript from EGFR WT)
Procedure: as §1, §2

EGFR S768I/T790M = target: T12, EGFR S768I/T790M (Homo sapiens, UniProt P00533, S768I/T790M); conditions: Ba/F3 cells expressing EGFR S768I/T790M; 72 hours
T12 construct: expressed in transfected cells; host or cells: Ba/F3 (retroviral transduction, pBabe-Puro based vectors)
Procedure: as §1, §2

[1] = target: T13, EGFR L747_K754del insATSPE (Homo sapiens, UniProt P00533, DEL747-749/K754E); conditions: Ba/F3 cells expressing EGFR L747_K754del insATSPE; 72 hours
T13 construct: expressed in transfected cells; host or cells: Ba/F3 (retroviral, pBabe-Puro based vector)
Procedure: as §1, §2

EGFR L858R/T790M = target: T14, EGFR L858R/T790M (Homo sapiens, UniProt P00533, L858R/T790M); conditions: Ba/F3 cells expressing EGFR L858R/T790M; 72 hours
T14 construct: expressed in transfected cells; host or cells: Ba/F3 (retroviral transduction, pBabe-Puro based vectors)
Procedure: as §1, §2

EGFR L861Q = target: T15, EGFR L861Q (Homo sapiens, UniProt P00533, L861Q); conditions: Ba/F3 cells expressing EGFR L861Q; 72 hours
T15 construct: expressed in transfected cells; host or cells: Ba/F3 (retroviral, pBabe-Puro based vector)
Procedure: as §1, §2

EGFR Ex19del/T790M/G724S = target: T16, EGFR Ex19del/T790M/G724S (Homo sapiens, UniProt P00533, DEL746-750/G724S/T790M); conditions: Ba/F3 cells expressing EGFR Ex19del/T790M/G724S; 72 hours
T16 construct: expressed in transfected cells; host or cells: Ba/F3 (retroviral transduction, pBabe-Puro based vectors)
Procedure: as §1, §2

C=CC(=O)N1CCC(Oc2cc3c(Nc4ccc(Cl)c(Cl)c4F)ncnc3cc2OC)CC1 [Poziotinib]
Response of Cells Comprising Classical-Like EGFR Mutations to Second-Generation TKIs (EGFR L858R/V834L): 0.08599 | Response of Cells Comprising Classical-Like EGFR Mutations to Second-Generation TKIs (EGFR L861R): 0.01648 | Response of Cells Comprising PACC EGFR Mutations to Second-Generation TKIs (EGFR L718V): 0.2403 | Response of Cells Comprising T790M-like-R EGFR Mutations to Second-Generation TKIs (EGFR Ex19del/T790M/L792H): 2157 | Response of Cells Comprising Ex20ins EGFR Mutations to Poziotinib (EGFR S768dupSVD): 0.09327 | Response of Cells Comprising Classical-Like EGFR Mutations to Second-Generation TKIs (EGFR S720P): 0.1814 | Response of Cells Comprising PACC EGFR Mutations to Second-Generation TKIs (EGFR E709K): 0.0379 | Response of Cells Comprising PACC EGFR Mutations to Second-Generation TKIs (EGFR E709K G719S): 0.01609 | Response of Cells Comprising PACC EGFR Mutations to Second-Generation TKIs (EGFR L858R/L718V): 0.01621 | Response of Cells Comprising T790M-like-S EGFR Mutations to Second-Generation TKIs (EGFR L858R T790M L792H): 56.36 | Response of Cells Comprising Classical-Like EGFR Mutations to Second-Generation TKIs (EGFR S811F): 0.2983 | Response of Cells Comprising T790M-like-S EGFR Mutations to Second-Generation TKIs (EGFR S768I/T790M): 2.935 | Response of Cells Comprising T790M-like-S EGFR Mutations to Second-Generation TKIs [1]: 0.8493 | Response of Cells Comprising T790M-like-S EGFR Mutations to Second-Generation TKIs (EGFR L858R/T790M): 2.414 | Response of Cells Comprising Classical-Like EGFR Mutations to Second-Generation TKIs (EGFR L861Q): 0.02499 | Response of Cells Comprising T790M-like-S EGFR Mutations to Second-Generation TKIs (EGFR Ex19del/T790M/G724S): 19.53
